In US6559305B1, “Linezolid—crystal form II” (Pharmacia & Upjohn Company, priority 2000, dated 2003):

Experiment: relative stability of linezolid crystal forms
Assay type: physicochemical
Conditions: temperature below about 85° (degrees Centigrade)

Compound: CC(=O)NC[C@H]1CN(c2ccc(N3CCOCC3)c(F)c2)C(=O)O1 [Crystal Form II, (S)-N-[[3-[3-fluoro-4-(4-morpholinyl)phenyl]-2-oxo-5-oxazolidinyl]methyl]acetamide]
- stability of the crystal form relative to other solid forms (e.g. Form I): most stable form below about 85°
